According to article PMC6857856, “Characterization of two thermophilic cellulases from Talaromyces leycettanus JCM12802 and their synergistic action on cellulose hydrolysis” (PLoS ONE, 2019):

Target: T1, TlCel5A (Evansstolkia leycettana, UniProt A0A3G5ECP2)
T1 construct: mature protein, 18-residue signal peptide removed (precursor 409 residues); catalytic domain, linker, C-terminal CBM; pPIC9, secreted from Pichia pastoris GS115, purified
Assay: HPAEC analysis of hydrolysis products
Type: biochemical
Conditions: 60 °C; 200 μg substrate in 1 mL, 0.05 U enzyme

T1 sequence (A0A3G5ECP2 19-409): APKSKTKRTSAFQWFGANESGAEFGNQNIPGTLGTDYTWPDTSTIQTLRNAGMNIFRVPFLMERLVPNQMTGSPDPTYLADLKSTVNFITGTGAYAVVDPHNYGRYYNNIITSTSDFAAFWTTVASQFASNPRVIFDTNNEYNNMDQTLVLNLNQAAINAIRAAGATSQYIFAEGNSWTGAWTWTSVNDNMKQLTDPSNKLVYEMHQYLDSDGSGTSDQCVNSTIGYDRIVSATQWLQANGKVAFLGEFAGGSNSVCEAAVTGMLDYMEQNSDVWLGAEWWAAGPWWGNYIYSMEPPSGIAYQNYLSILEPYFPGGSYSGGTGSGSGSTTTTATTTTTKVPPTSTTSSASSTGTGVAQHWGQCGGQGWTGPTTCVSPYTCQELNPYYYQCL

| SMILES | HPAEC analysis of hydrolysis products |
| --- | --- |
| OC[C@H]1O[C@@H](O[C@H]2[C@H](O)[C@@H](O)[C@H](O[C@H]3[C@H](O)[C@@H](O)[C@H](O[C@H]4[C@H](O)[C@@H](O)[C@H](O[C@H]5[C@H](O)[C@@H](O)[C@H](O[C@H]6[C@H](O)[C@@H](O)C(O)O[C@@H]6CO)O[C@@H]5CO)O[C@@H]4CO)O[C@@H]3CO)O[C@@H]2CO)[C@H](O)[C@@H](O)[C@@H]1O (some centres unmarked) [cellohexaose] | cellohexaose into cellobiose, cellotriose, cellotetraose and cellopentaose |
| OC[C@H]1O[C@@H](O[C@H]2[C@H](O)[C@@H](O)[C@H](O[C@H]3[C@H](O)[C@@H](O)[C@H](O[C@H]4[C@H](O)[C@@H](O)[C@H](O[C@H]5[C@H](O)[C@@H](O)C(O)O[C@@H]5CO)O[C@@H]4CO)O[C@@H]3CO)O[C@@H]2CO)[C@H](O)[C@@H](O)[C@@H]1O (some centres unmarked) [cellopentaose] | cleaved cellopentaose into mainly cellobiose and cellotriose and low amounts of cellotetraose |
